# What was measured:
# [1] = molecular target: SARS-CoV-2 Main Protease (SARS-CoV-2) (UniProt P0DTD1)
# [2] = molecular target: SARS-CoV-2 Main Protease (SARS-CoV-2) (UniProt P0DTD1); remark: listed apart in the source
Structure (SMILES),inhibition ([1]; 50.0 µM) [%],inhibition ([2]; 20.0 µM) [%],inhibition ([2]; 50.0 µM) [%],relative solubility at 20 uM,relative solubility at 100 uM,inhibition ([1]; 20.0 µM) [%],IC50 [1] [nM]
Cc1nnc(NC(=O)Cc2cccc(Cl)c2F)s1,0,1.02,-14.8,0.99,0.68,,
O=C(Nc1cnccc1Cl)c1cccc(Cl)c1,10.5,-2.3,3.23,1,1,0,
C=CC(=O)N1CCCN(Cc2ccccc2)CC1,,0.947,9.99,1,1,0,
COc1c(NC(=O)Cc2cccc(Cl)c2Cl)c(C)nn1C,0,2.78,2.19,1,1.01,,
O=C(Nc1ccc(Oc2ncccn2)cc1)C(=O)N1CCN(Cc2cccs2)CC1,,-21,-13.8,1,1,0,
COCc1cc(Cl)cc(CN2CCN(C(=O)CCl)CC2)c1,118,97.6,99.9,0.98,0.99,,1310
CCCSCC(=O)C(C#N)C(=O)Nc1ccc(F)cc1F (stereo not given),3.54,,21.8,1.01,1.01,3.06,
CNC(=O)OC1CCN(C(=O)c2ccccc2)CC1,0,,19.2,1,1,0,
Cc1nnc(CNC(=O)C2CCOc3ccc(Cl)cc32)n1C1CC1 (stereo not given),0,6.91,0.282,1,1,,
Cc1ccc(S(=O)(=O)N2CCN(C(=O)c3cc(=O)[nH]c4ccc(F)cc34)CC2)c(C)c1,11.7,6.24,20.6,0.98,0.84,,
O=C(Nc1nnc(-c2ccccn2)o1)C1CCN(S(=O)(=O)c2ccc(F)cc2)CC1,0,3.87,-71,0.95,0.96,,
C=CC(=O)N(c1ccc(C(F)(F)F)cc1)C(C(=O)Nc1ccccc1Br)c1cccnc1 (stereo not given),,15.6,22,0.94,0.83,9.6,
C=CC(=O)N1CCN(C(=O)c2cccc(Cl)c2)CC1,0,,5.55,0.99,0.99,0,
N#Cc1ccccc1S(=O)(=O)N1CCN(C(=O)c2cc(=O)[nH]c3ccc(F)cc23)CC1,29.9,14.7,29.9,0.99,0.92,,
N#CCN1CCN(Cc2cc(Cl)cc3ccccc23)CC1,10.2,,5.55,0.91,0.92,10.4,
O=C(NCc1cncs1)Nc1cccc(N2CCOCC2)c1,23.8,5.65,13.6,1,1.01,0.672,
Cc1ccncc1NC(=O)C(C)Cc1ccccc1 (stereo not given),0,-54.9,-128,1,1,,
O=C(Cc1cccc(Cl)c1)Nn1cnc2ccccc21,45.3,74.2,87.7,1,1,,4270
Cc1cccc(C)c1OCC(=O)N[C@@H](Cc1ccccc1)[C@@H](O)C[C@H](Cc1ccccc1)NC(=O)[C@H](C(C)C)N1CCCNC1=O (stereo in doubt),,7.22,13,0.83,0.53,0,

Structure (SMILES),inhibition ([1]; 50.0 µM) [%],inhibition ([2]; 20.0 µM) [%],inhibition ([2]; 50.0 µM) [%],relative solubility at 20 uM,relative solubility at 100 uM,inhibition ([1]; 20.0 µM) [%],IC50 [1] [nM]
O=C1CC[C@@H](C(=O)Nc2cccc(Cl)c2)CN1 (stereo in doubt),-12,-24,-3.68,1,1,,
O=C(Nc1cccnc1)c1cc(Cl)ccc1O,,18.3,22.8,1,0.89,0,
C[C@H]1CN(Cc2ccccc2)CC[C@@H]1NC(=O)C(=O)NCc1ccccc1CN1CCCC[C@@H]1C (stereo in doubt),0,-2.35,1.34,1,0.99,,
Cc1ccncc1NC(=O)Cc1cccc(F)c1,40.9,39.6,65.3,1.01,1,,
COc1ccc(C(=O)Nc2cccc(/C=C3/C(=O)NC(=O)c4ccccc43)c2)cc1,34.2,-3.55,-22.9,0.48,0.54,,
CS(=O)(=O)Nc1cccc(C(=O)Nc2cccc(N3CCCC3=O)c2)c1,,0.866,5.19,1,0.99,0,
Cc1cnn(-c2ccncc2NC(=O)Cn2cc(C)c3ccccc32)c1,0,-8.61,-0.417,0.59,0.1,,
CCCN(C(=O)Cc1cccc(Cl)c1)c1cccnc1,36.2,2.28,3.25,1,1,,
Cc1ccn(CC(=O)NCc2nccn2CCc2ccccc2)c(=O)c1,0,-14.1,-2.52,1,1,,
C=CC(=O)N(c1ccc2ncsc2c1)C(C(=O)Nc1ccc(Br)cc1)c1cccnc1 (stereo not given),,17.4,34.9,0.75,0.64,3.05,
O=C(CCl)N1CCC(C(=O)N2CCCCC2)CC1,,18.5,31.4,1,1,0.506,
CO[C@H](C)C(=O)N(C)c1cnccc1C (stereo in doubt),18,3.08,4.99,1.01,0.99,,
C=CC(=O)N(c1ccc(C(C)(C)C)cc1)C(C(=O)NCCc1cccc(F)c1)c1cncc(C)c1 (stereo not given),0,49,78.2,0.8,0.28,,
Cc1ccncc1NC(=O)C1(c2cccc(Cl)c2)CC1,43.3,38.4,61.6,1.01,1,,
COC1CCN(c2ccc(S(N)(=O)=O)cc2)CC1,35.4,2.98,6.82,1,1,29.7,
O=C1CN(c2nnc(C3CCC(=O)N3)n2CCn2cc(Cl)cn2)CCN1 (stereo not given),35.3,-2.26,-0.405,1,1,,
Cc1ccnc(NC(=O)Cc2ccc3ccccc3c2)c1,,3.57,8.23,0.98,0.94,0,
Cc1ccc(S(=O)(=O)N2CCN(C(=O)c3cc(=O)[nH]c4cc(F)ccc34)CC2)c(C)c1,11.4,21.8,48.1,1,0.92,,
Cc1ccncc1NC(=O)C12CCC(CO1)C2 (stereo not given),0,-5.84,9.66,1.01,1,,
